Assay results published in patent publication US5663207A, “Gem-dichlorocyclopropanes as antitumor agents” (priority 1995, dated 1997).
“Also recorded” adds a separate entry of the source.

Experiment: Stability observed during isolation and storage
Assay type: physicochemical
Settings: on concentration, drying or storage
Description: The structures of all compounds were supported by their proton NMR spectra, which were measured on either a Varian EM-360A or XL-300 spectrometer. The spectra are reported in parts per million in CDCl3 unless otherwise noted, with tetramethysilane as the internal standard. Infrared spectra were obtained from KBr pellets on a Beckman Acculab 1 spectrometer and were consistent with the assigned structures. Silica gel (for example, obtained commercially from J. T. Baker) of approximately 40 μm diameter was used for flash chromatography (STILL, W. C., KAHN, M. AND MITRA, A. (1978), "Rapid chromatographic technique for preparative separations with moderate resolutions", Journal of Organic Chemistry, 43, 2923), which was performed at 5-10 psi. Petroleum ether was of bp 30°-60° C. When necessary, solvents or reagents were dried by appropriate methods. Evaporations were carried out in vacuo on a rotary evaporator or under a stream of dry N2. Melting points were taken on a Thomas-Hoover capillary melting point apparatus and are uncorrected. Reaction progress and product purity were monitored by analytical TLC on strips of Eastman Kodak plastic-backed SiO2 60 F254 or Al2 O3 F254. Developed strips were viewed under light of 254 and 365 nm wavelengths. Elemental analyses were done by Midwest Microlab Ltd., Indianapolis, IN. Acceptable elemental results are denoted in Table I by the formula, followed by the elements analyzed. Melting points and yields of all compounds were based on pure samples unless otherwise noted, are listed in Table I. Para-Bromoanisole, p-methoxydeoxybenzoin, anisole, p-methoxybenzaldehyde, and 2,3-bis-(p-methoxyphenyl)-acrylic acid and trans-p-methoxystilbene (the olefin), were purchased from Aldrich & Co. The cyclopropanes 1,1-dichloro-cis-2-(p-hydroxyphenyl)-3-phenylcyclopropane (9), and its trans isomer 1,1-dichloro-trans-2-(p-Hydroxyphenyl)-3phenylcyclopropane (17) were prepared from Compounds 8 & 16, respectively. […] Tamoxifen was obtained from Stuart Pharmaceuticals, Division of ICI Americas, Inc., Wilmington, Del. 19897. MER 25 was obtained from the Merrell Dow Research Institute, Division of Merrell Dow Pharmaceuticals, Inc., Cincinnati, Ohio. Protein Assay Reagent, Pierce Chemical Co., Rockford, Ill. 61105. Diethylstilbestrol, β-estradiol, EDTA, DL-dithiothreitol, Sodium molybdate, and Tris (hydroxymethyl) aminomethane hydrochloride were purchased from Sigma Chemical Co., St. Louis, Mo. 63178.
Essentially, the intermediate olefin acids (Compounds 6 & 12) were obtained from a mixed Perkin and Knoevenagel-type condensation involving the reaction of p-methoxyaldehyde (Compound 4) with phenylacetic acid (Compound 5), or p-methoxyphenylacetic acid (Compound 11) in triethylamine and acetic anhydride. To prepare cis-p-methoxystilbene (Compound 7) or bis-(p-methoxy)-cis-stilbene (Compound 13). Decarboxylation of 6 & 12 with quinoline (prevents isomerizations; KLEIN, J. AND MEYER, A. Y. (1964), "The decarboxylation of α-cyano-and α-carboxycinnamic acids", Journal of Organic Chemistry, 29, 1038), and copper chromite at elevated temperature provided 7 & 13. High temperature during distillation caused 8% isomerization to the trans-isomer (15), which was isolated by column chromatography. Dichlorocarbene generation used the catalytic phase transfer method (21, 37) (used extensively in our laboratory) of 50% aqueous solution of NaOH, CHCl3 and benzyltriethylammonium chloride (TEBA) as the anion transfer agent. […]

With CC(=O)Oc1ccc([C@H]2[C@@H](c3ccccc3)C2(Cl)Cl)cc1 (relative stereo) [Compound 10, 1,1-Dichloro-cis-2-(p-acetoxyphenyl)-3-phenylcyclopropane] the “stability (in words)” value was “stable light-yellow oil at 0 °C”.
With Oc1ccc(C2(c3ccc(O)cc3)C(Cl)(Cl)C23CCCCC3)cc1 [Compound 30, 1,1-Dichloro-2,2-bis-(p-hydroxyphenyl)-spiro[2.5]octane] the “stability (in words)” value was “gradually turned to light-orange; also recorded: underwent a gradual color change”.
